Experimental data as given in US20110165076A1, “NOVEL [F-18]- LABELLED L-GLUTAMIC ACID AND L-GLUTAMINE DERIVATIVES (I), USE THEREOF AND METHOD FOR THEIR PRODUCTION” (BAYER SCHERING PHARMA AKTIENGESELLSCHAFT, priority 2008, published 2011).

Legend:
[1] = test system: A549 tumours; assay: Organ distribution experiment in mice bearing A549 tumours; format: in vivo; conditions: for % dose/g adrenals / % dose/g blood / % dose/g bone / % dose/g brain / % dose/g fat / % dose/g heart / % dose/g intestine / % dose/g kidney / % dose/g liver / % dose/g lung / % dose/g muscle / % dose/g ovary / % dose/g pancreas / % dose/g skin / % dose/g spleen / % dose/g stomach / % dose/g tail / % dose/g thyroid / % dose/g tumour / % dose/g uterus: i.v. 250 kBq
[2] = test system: H460 tumour; assay: PET in rats bearing H460 tumours; format: in vivo; conditions: 80 min after i.v. 18 MBq, 20 min acquisition
[3] = test system: A549 and H460 tumour cells; assay: Cell uptake of F-18-labelled glutamic acid derivative in tumour cells; conditions: for cellular uptake (FIG. 2): after 30 min
Excerpt: Following labelling with F-18, (2S,4S)-2-amino-4-(3-[F-18]fluoropropyl)pentanedioic acid was examined in cell experiments with A549 and H460 tumour cells (both human non-small-cell bronchial carcinoma cell lines).

[4] = test system: A549 tumour; assay: PET/CT imaging in mice bearing A549 tumours; format: in vivo; conditions: 60 min after i.v. 10 MBq, 20 min acquisition
[5] = test system: A549 cells; assay: Competition cell experiment: uptake of tracer 4R/S-[F-18]F-L-glutamic acid in presence of competitor; format: cell-based, human; conditions: competitor 1 mM; for % Tracer uptake: A549 cells, 10 min incubation with 0.250 MBq 4R/S-[F-18]F-L-Glu in PBS buffer; for inhibition of tracer uptake (competition): tracer 4R/S-[F-18]F-L-glutamic acid
Procedure: The uptake of the glutamic acid derivatives according to the invention into tumour cells was investigated in cell experiments. Here, the uptake of a radiolabelled glutamic acid derivative (4R/S—[F-18]F-L-glutamic acid) was examined in the presence of the compounds according to the invention and control susbtances (competition experiments). The compounds according to the invention were employed in excess (1 mM) over 4R/S—[F-18]F-L-glutamic acid (tracer).

## N[C@@H](C[C@H](CCC[18F])C(=O)O)C(=O)O
[1]; 0.25 h
  % dose/g adrenals: 0.94 % dose/g
  % dose/g blood: 0.72 % dose/g
  % dose/g bone: 0.44 % dose/g
  % dose/g brain: 0.09 % dose/g
  % dose/g fat: 0.31 % dose/g
  % dose/g heart: 0.42 % dose/g
  % dose/g intestine: 1.27 % dose/g
  % dose/g kidney: 14.38 % dose/g
  % dose/g liver: 0.55 % dose/g
  % dose/g lung: 1.35 % dose/g
  % dose/g muscle: 0.17 % dose/g
  % dose/g ovary: 1.82 % dose/g
  % dose/g skin: 1.71 % dose/g
  % dose/g spleen: 2.87 % dose/g
  % dose/g stomach: 3.25 % dose/g
  % dose/g tail: 2.74 % dose/g
  % dose/g thyroid: 1.17 % dose/g
  % dose/g uterus: 1.30 % dose/g
[1]; 0.5 h
  % dose/g adrenals: 0.78 % dose/g
  % dose/g blood: 0.35 % dose/g
  % dose/g bone: 0.37 % dose/g
  % dose/g brain: 0.10 % dose/g
  % dose/g fat: 0.08 % dose/g
  % dose/g heart: 0.20 % dose/g
  % dose/g intestine: 0.90 % dose/g
  % dose/g kidney: 6.44 % dose/g
  % dose/g liver: 0.46 % dose/g
  % dose/g lung: 1.08 % dose/g
  % dose/g muscle: 0.09 % dose/g
  % dose/g ovary: 1.13 % dose/g
  % dose/g skin: 2.26 % dose/g
  % dose/g spleen: 1.76 % dose/g
  % dose/g stomach: 2.64 % dose/g
  % dose/g tail: 3.45 % dose/g
  % dose/g thyroid: 1.31 % dose/g
  % dose/g uterus: 1.27 % dose/g
[1]; 1.0 h
  % dose/g adrenals: 0.27 % dose/g
  % dose/g blood: 0.13 % dose/g
  % dose/g bone: 0.20 % dose/g
  % dose/g brain: 0.06 % dose/g
  % dose/g fat: 0.04 % dose/g
  % dose/g heart: 0.08 % dose/g
  % dose/g intestine: 0.52 % dose/g
  % dose/g kidney: 2.01 % dose/g
  % dose/g liver: 0.21 % dose/g
  % dose/g lung: 0.50 % dose/g
  % dose/g muscle: 0.05 % dose/g
  % dose/g ovary: 0.94 % dose/g
  % dose/g skin: 1.80 % dose/g
  % dose/g spleen: 1.02 % dose/g
  % dose/g stomach: 0.96 % dose/g
  % dose/g tail: 1.19 % dose/g
  % dose/g thyroid: 0.77 % dose/g
  % dose/g uterus: 0.93 % dose/g
[1]; 2.00 h
  % dose/g adrenals: 0.20 % dose/g
  % dose/g blood: 0.07 % dose/g
  % dose/g bone: 0.20 % dose/g
  % dose/g brain: 0.05 % dose/g
  % dose/g fat: 0.09 % dose/g
  % dose/g heart: 0.05 % dose/g
  % dose/g intestine: 0.32 % dose/g
  % dose/g kidney: 0.80 % dose/g
  % dose/g liver: 0.11 % dose/g
  % dose/g lung: 0.29 % dose/g
  % dose/g muscle: 0.03 % dose/g
  % dose/g ovary: 0.28 % dose/g
  % dose/g skin: 1.01 % dose/g
  % dose/g spleen: 0.53 % dose/g
  % dose/g stomach: 0.39 % dose/g
  % dose/g tail: 1.69 % dose/g
  % dose/g thyroid: 0.42 % dose/g
  % dose/g uterus: 0.37 % dose/g
[1]; bones, at all points in time
  uptake into the bones: < 0.5 % ID/g
[1]; kidneys, after 0.25 h
  uptake in kidneys: 14.4 % ID/g
[1]; kidneys, after 1 h
  activity in kidneys: 2 % ID/g
[1]; pancreas, 0.25 h
  % dose/g pancreas: 13.64 % dose/g
[1]; pancreas, 0.5 h
  % dose/g pancreas: 8.51 % dose/g
[1]; pancreas, 1.0 h
  % dose/g pancreas: 3.99 % dose/g
[1]; pancreas, 2.00 h
  % dose/g pancreas: 1.35 % dose/g
[1]; pancreas, after 0.25 h
  uptake in pancreas: 13.6 % ID/g
[1]; pancreas, after 1 h
  activity in pancreas: 4 % ID/g
[1]; tumour, 0.25 h
  % dose/g tumour: 2.42 % dose/g
[1]; tumour, 0.25 h after injection
  injected dose per g in the tumour: 2.4 % ID/g
[1]; tumour, 0.5 h
  % dose/g tumour: 1.82 % dose/g
[1]; tumour, 1.0 h
  % dose/g tumour: 1.58 % dose/g
[1]; tumour, 2.00 h
  % dose/g tumour: 0.97 % dose/g
[1]; tumour, after 1 h
  tumour uptake: 1.6 % ID/g
[2]
  uptake into the H460 tumour (PET image analysis): high uptake
[3]
  cellular uptake (FIG. 2): 840 000 cpm/100 000 cells
[3]; after 30 min of incubation, A549 and H460 tumour cells
  cellular uptake: 899 000 cpm per 100 000 cells
[3]; after 30 minutes of incubation
  accumulation in tumour cells compared to [F-18]FDG: accumulates to a greater degree
[4]
  uptake into the A549 tumour (PET/CT image analysis): high uptake

## N[C@@H](C[C@H](CCCF)C(=O)O)C(=O)O [4S-(3-fluoropropyl)-L-Glu, (2S,4S)-2-Amino-4-(3-fluoropropyl)pentanedioic acid]
[5]
  % Tracer uptake: 5.4%
  inhibition of tracer uptake (competition): > 94%

## N[C@@H](C[C@@H](O)C(=O)O)C(=O)O [(4R)-hydroxy-L-Glu]
[5]
  % Tracer uptake: 29.6%
  inhibition of tracer uptake (competition): 70%

## C[C@H](C[C@H](N)C(=O)O)C(=O)O [(4R)-methyl-L-Glu]
[5]
  % Tracer uptake: 33.5%
  inhibition of tracer uptake (competition): 64%

## NC(CC(F)C(=O)O)C(=O)O [(4R/S)-fluoro-D/L-Glu]
[5]
  % Tracer uptake: 16.3%

## N[C@@H](C[C@H](O)C(=O)O)C(=O)O [(4S)-hydroxy-L-Glu]
[5]
  % Tracer uptake: 13.2%
  inhibition of tracer uptake (competition): 87%

## C[C@@H](C[C@H](N)C(=O)O)C(=O)O [(4S)-methyl-L-Glu]
[5]
  % Tracer uptake: 7.7%
  inhibition of tracer uptake (competition): 92%

## N[C@@H](CCC(=O)O)C(=O)O [L-Glu, L-configured glutamic acid]
[5]
  % Tracer uptake: 12.6%
  inhibition of tracer uptake (competition): 87%

## OC[C@H]1OC(O)[C@H]([18F])[C@@H](O)[C@@H]1O (stereo partly shown) [[F-18]FDG, [^18F]-2-Fluorodeoxyglucose, reference compound]
[3]
  cellular uptake (FIG. 2): 770 000 cpm/100 000 cells
